Test results as given in US20030224983A1, “Stimulation of beta cell proliferation” (priority 1998, published 2003).

Legend:
[1] = test system: male Zucker Diabetic Fatty fa/fa (ZDF) rat; experiment: blood glucose during a normal 24-hour feeding schedule in ZDF rats; format: in vivo
Description: (§1) The male Zucker Diabetic Fatty fa/fa (ZDF) rat is a model of Type 2 diabetes. The rats are insulin resistant but normoglycemic from birth and they develop diabetes from about week 7 to week 10 of age. During the transitional period, the animals go through a state of impaired glucose tolerance. Although the animals are hyperinsulinemic before diabetes onset and during the early stages of diabetes, they later lose glucose-stimulated insulin secretion and finally become almost completely insulinopenic.
(§2) We have studied the effects of Arg^34, Lys^26(N-ε-(γ-Glu(N-α-hexadecanoyl)))-GLP-1(7-37) therapy during a period of time when the animals would normally progress from having impaired glucose tolerance to having overt Type 2 diabetes. Three groups of male ZDF rats (Genetic Models Inc, Indianapolis, Ind., U.S.A.) were studied and dosed subcutaneously bi-daily with either vehicle (group A), 30 (group B) or 150 μg/kg (group C) of Arg^34, Lys^26(N-ε-(γ-Glu(N-α-hexadecanoyl)))-GLP-1(7-37), n=6 per group. Animals were between 7 and 8 weeks old when dosing was initiated, and fed glucose levels were not different between the groups before dosing began. […] After 36 days of dosing, an oral glucose tolerance test was performed in the animals after an 11-hour fast. One g/kg of glucose was administered by oral gavage and subsequent measurements of blood glucose and plasma insulin were made.

[2] = test system: male Zucker Diabetic Fatty fa/fa (ZDF) rat; experiment: oral glucose tolerance test in ZDF rats; format: in vivo; settings: group C, 150 μg/kg bi-daily, after 36 days; 11-hour fast, 1 g/kg glucose by oral gavage; total AUC, p<0.0002 by ANOVA
Description: as §1, §2

beta-cells of ZDF rats [3] = experiment: relative mass of islet beta-cells, point counting stereologic techniques; format: in vivo, rat
Description: (§3) The rat experiment described in example 2 were examined for effects of Arg^34, Lys^26(N-ε-(γ-Glu(N-α-hexadecanoyl)))-GLP-1(7-37) (named GLP-1 in FIG. 3 and 4) on beta-cell growth and neogenesis.
Neighbor sections were stained for insulin and the combination of glucagon-somatostatin-pancreatic polypeptide for the measurement of the relative mass of islet beta-cells and nonbeta-cells. The beta-cells were stained for insulin as described above. The nonbeta-cells were stained with a mixture of monoclonal mouse anti-glucagon+rabbit anti-somatostatin+rabbit anti-pancreatic polypeptide, detected by biotinylated swine anti-multible Ig's, avidin peroxidase, and developed with DAB and CuSO4 to give a dark brown stain. The volume fractions of beta- and nonbeta-cells were estimated by point counting stereologic techniques.

beta-cells of ZDF rats [4] = experiment: beta-cell proliferation rate in vivo, BrDU and insulin double staining of pancreas sections; design: species or system rat; settings: 30 and 150 μg/kg bi-daily, 100 mg BrDU/kg i.p. six hours before sacrifice
Procedure: as §3
Bromodeoxyuridine (BrDU) is incorporated in newly synthesized DNA and thus will label replicating cells. Six hours before sacrifice the rats were given an injection of 100 mg BrDU/kg intraperitoneally. After sacrifice the pancreata were fixed in 4% PFA, dehydrated, embedded in paraffin, and […] sections double stained for BrDU and insulin for the measurement of beta-cell proliferation rate.
Insulin was stained with guinea pig anti-insulin, peroxidase-coupled rabbit anti-guinea pig Ig, and developed with AEC to give a red stain. BrDU was stained by monoclonal mouse anti-BrDU, biotinylated goat anti-mouse Ig, avidin peroxidase, and developed with DAB and CuSO4 to give a dark brown stain. BrDU stained nuclei of cells with insulin stained cytoplasm was examined in more than 1500 cells per section. The examination of the sections were carried out with the origin of the sections blinded to the observer.

[5] = test system: beta cells (insulin positive cells in pancreatic islet cells from newborn rats); experiment: beta cell proliferation in vitro, BrdU incorporation in insulin positive islet cells; format: cell-based, rat; settings: for number of labelled beta cells: then 10 μM BrdU for 90 min, absence of hormones 0.6%
Description: Diabetes is characterized by insufficiency of the pancreatic beta cells to maintain normoglycemia. In type 1 diabetes (IDDM) this is due to destruction of the beta cells by an autoimmune process whereas in type 2 diabetes (NIDDM) it is due to a combination of beta cell deficiency and peripheral insulin resistance. […] However in diabetic patients the number of beta cells is reduced and it is therefore pertinent not only to improve the function of the beta cells by therapeutical means but also to increase the number of beta cells. […] In our efforts to identify beta cell growth factors we discovered that GLP-1 indeed could stimulate beta cell proliferation in vitro. The proliferation was measured as incorporation of the thymidine analogue 5-bromo-2-deoxyuridine into DNA in insulin positive cells in pancreatic islet cells from newborn rats. […] This may have important implication for the treatment and/or prevention of diabetes.
The protocol was a slight modification of the procedure described by Billestrup and Nielsen (Billestrup N, Nielsen J H: The stimulatory effect of growth hormone, prolactin, and placental lactogen on beta cell proliferation is not mediated by insulin-like growth factor-I. Endocrinology 1991; 129:883-888.). Pancreatic islets were isolated from newborn rats by the collagenase method and cultured for 2-5 days before use. 2000 islets were transfered to 15 ml plastic tubes and washed once with Ca/Mg-free Hank's balanced salt solution. 500 μl cold trypsin solution (0.05% trypsin, 0.53 mM EDTA in Ca/Mg-free Hank's solution). The islets were dispersed by aspiration with a pipette. 5 ml culture medium RPMI 1640 with 2% human serum was added. 75,000 islet cells were then placed in tissue culture flasks previously coated with ECL cell attachment matrix (Upstate Biotechnology) with 2 ml culture medium with 1 μg/ml human growth hormone (hGH) (Norditropin, Novo Nordisk). After 7 days in culture at 37C the medium was replaced with culture medium without hGH or with addition of 100 nM GLP-1, 5 μM Arg^34, Lys^26(N-ε-(γ-Glu(N-α-hexadecanoyl)))-GLP-1(7-37) or 200 ng/ml hGH. After 2 days in culture 10 μM 5-bromo-2-deoxyuridine (BrdU) was added and after 90 min the medium was removed and the cells fixed in 1% paraformaldehyde in 0.1 M phosphate buffer. The cells were then stained with antibodies to BrdU and insulin as described (Billestrup and Nielsen, 1991). The number of labelled beta cells in the absence of hormones was 0.6% and in the presence of hGH 3.5%. In the presence of GLP-1 the number was 1.7% and in the presence of Arg^34, Lys^26(N-ε-(γ-Glu(N-α-hexadecanoyl)))-GLP-1(7-37) 1.4%.

## Arg^34, Lys^26(N-ε-(γ-Glu(N-α-hexadecanoyl)))-GLP-1(7-37)
[1]; group B (low dose), 30 μg/kg subcutaneously bi-daily, after 10 days of dosing
  blood glucose levels during a normal 24-hour feeding schedule: hyperglycemic
[1]; group C, 150 μg/kg subcutaneously bi-daily, after 10 days of dosing
  blood glucose levels during a normal 24-hour feeding schedule, compared to initial measurements: unchanged compared to the initial measurements
[1]; group C, 150 μg/kg subcutaneously bi-daily, after 10 days, total area under the curve, p<0.0002 by ANOVA
  blood glucose levels during a normal 24-hour feeding schedule, compared to vehicle- and low-dose-treated animals: significantly lower
[2]
  glycemic level in oral glucose tolerance test, compared to groups A and B: significantly lower
beta-cells of ZDF rats [3]; 30 ng/g for 6 weeks
  beta-cell fraction of the total pancreas, compared to vehicle treated rats: significantly higher
beta-cells of ZDF rats [3]; 150 ng/g, compared to 30 ng/g
  beta-cell fraction of the total pancreas: no further increase
beta-cells of ZDF rats [4]
  fraction of beta-cells that had incorporated BrDU: dose dependent increase
[5]; 5 μM, 2 days in culture
  number of labelled beta cells: 1.4%

## GLP-1: The term GLP-1 means GLP-1(7-37) or GLP-1(7-36) amide [reference compound]
[5]; 100 nM GLP-1, 2 days in culture
  number of labelled beta cells: 1.7%
[5]; BrdU incorporation into DNA in insulin positive cells, newborn rat islet cells
  number of labelled beta cells (in words): increase the number of labelled beta cells

## hGH: human growth hormone (hGH) (Norditropin, Novo Nordisk)
[5]; 200 ng/ml hGH, 2 days in culture
  number of labelled beta cells: 3.5%
